Assay results taken from publication PMC8819291, “Adaptively evolved human oral actinomyces‐sourced defensins show therapeutic potential” (EMBO Molecular Medicine, 2021).
Where a SMILES comes first, the peptide text is derived from it.

Assays:
HL‐60 = test: Cytotoxicity assay (CCK-8); assay type: cell-based, human; details: 72 h
Method: Cells were cultured at 37°C in 5% CO2: 95% air incubator in Minimum Essential Medium (MEM) supplemented with 10% (v/v) fetal bovine serum (FBS). Cells were seeded at a density of 7 × 10^3 cells per well in 96‐well plates and incubated for 24 h. Media were then replaced with 200 μl of media containing various concentrations of peptides. The cells were incubated for 72 h and cytotoxicity was assessed with CCK‐8 Kits (Dojindo Molecular Technologies, Tokyo, Japan). Absorbance was detected at 450 nm with the TECAN Infinite M200 microplate reader (Tecan, Durham, USA).

A549 cells = test: Peptide-induced IL-8 release (ELISA); assay type: cell-based, human; details: 24 h
Method: (§1) A549 and HL‐60 cells were purchased from the Cell Resource Center of the Chinese Academy of Medical Sciences (Beijing, China). They were tested for mycoplasma contamination with the Mycoplasma Detection Kit (Solarbio, China) and only negative cultures were used in our experiments. The cells were cultured in complete Dulbecco’s Modified Eagle Medium (DMEM) supplemented with 10% fetal bovine serum (FBS), penicillin (100 units/ml), and streptomycin ([…]) at 37°C in 5% CO2. The culture medium was changed every 2 days. Cells were passaged every 4–5 days with 0.25% trypsin (Gibco, USA). For enzyme‐linked immunosorbent assay (ELISA) (Hara et al, [2008]), A549 or HL‐60 cells were seeded in six‐well plates at a density of 1 × 10^5 cells/well and were incubated at 37°C in 5% CO2 overnight. Medium was aspirated and replaced with fresh complete DMEM supplemented with 10% FBS or serum‐free medium, both containing different concentrations of polypeptides for 24 h. Then, the supernatants were harvested for quantification of the IL‐8 amount in A549 by the Human CXCL8/IL‐8 Quantikine ELISA Kit (R&D Systems Inc., Minneapolis, MN, USA) and the MCP‐1 amount in HL‐60 by the Human MCP‐1 ELISA Kit (Boster Biological Technology Co., Ltd, Wuhan, China) as per the manufactures’ instructions.

HL‐60 cells = test: Peptide-induced MCP-1 release (ELISA); assay type: cell-based, human; details: 24 h
Method: as §1

[1] = system: BM cells (Bacillus megaterium); test: Scanning electron microscope observation of cell deformation; assay type: cell-based; details: 10 × C L, 37°C, 90 min
Method: After centrifugation, bacterial pellets were fixed with 2.5% glutaraldehyde for 1 h, followed by washing three times with PBS buffer (pH 7.3). Dehydration was carried out with a series of graded ethanol solutions. Cells were then dried by BAL‐TEC CPD‐030 critical point dryer (Bal‐Tec AG, Balzers, Liechtenstein) before being mounted on carbon tape and sputtered with a gold coating (BAL‐TEC SCD005). Images were visualized in FEI QUANTA 450.

MRSA P1374 = test: Cytoplasmic accumulation of UMP; assay type: cell-based, Staphylococcus aureus; details: 20 × C L, 30 min; RP-HPLC, UV 260 nm
Method: To analyze the cytoplasmic nucleotide pool, we carried out the cytoplasmic UMP accumulation experiment according to the literature (Brötz et al, [1997]) with some modifications. MRSA P1374 cells were grown in 40‐ml broth medium at 37°C to an OD600 of 0.5. The culture was supplemented with 130 μg/ml chloramphenicol. […] After 30 min of incubation, UMP was extracted from the harvested cells by stirring them into boiling water. The suspension was then centrifuged (43,000 g, 60 min) at 4°C and the supernatant was lyophilized and dissolved in 400 μl of 50 mM ammonium acetate (pH 5.2) and adjusted to pH 2.0 with acetic acid. After acidification, the supernatant was fractionated by RP‐HPLC on Hypersil ODS (250 × 4.6 mm; Thermo Scientific) and UMP was eluted from the column with a linear gradient from 0 to 40% methanol in 50 mM NH4Ac (pH 5.2) within 40 min with a flow rate of 1 ml/min. UV absorbance was monitored at 260 nm. UMP was identified by ultraperformance liquid chromatography–high resolution mass spectrometry (UPLC‐HRMS) and MALDI‐TOF. Both methods yielded consistent results.

[2] = Circular dichroism spectroscopy with UMP; assay type: binding; details: 50 mM NH4OAc, room temperature
Method: The spectra were measured at room temperature from 300 to 200 nm by using a quartz cell of 1.0 mm thickness. Data were collected at 1‐nm intervals with a scan rate of 2 nm/s.

[3] = Bioaffinity ESI-MS with UMP; assay type: binding, Staphylococcus aureus; details: 25 mM ammonium acetate (pH5.2)
Method: All components for interactions were dissolved in 25 mM ammonium acetate (pH5.2). Electrospray spectra were recorded with Waters SynaptG2‐Si mass spectrometer (Waters, Manchester, UK) and measurements were performed with positive ESI in resolution mode. Ions were scanned in a mass range of 500–2,000 m/z with the following conditions: the capillary voltage at 1,500 V; the cone voltage at 40 V; the source block temperature at 30°C. Spectra were recorded and processed by the software Masslynx4.1 (Waters, Manchester, UK).

SP D39 = test: Mouse lung infection model
Method: To this end, ICR female mice (30 g each mouse; 9–10 weeks of age) were anesthetized with 1.25% 2,2,2‐Tribromoethanol (Avertin) (Macklin, Shanghai, China) and hung by their front teeth on a steel wire. Then, they were inoculated intranasally with 10–20 µl bacterial suspension of SP D39 of fresh overnight culture (1.5 × 10^6 CFU per mouse) and then were removed from the wire to their cages. A control group of untreated mice was included. […] Mice were treated with penicillin as a positive control. At 48 h post‐infection, the mice were sacrificed and lungs removed and homogenized in 0.9% saline. Colony counts from lung homogenates were determined and the total number of colonies/lungs per mouse was calculated. Schematic representation is provided in Appendix Fig S16B.

[4] = system: fresh erythrocytes from the female ICR mice; test: Hemolysis assay; assay type: cell-based, Mus musculus; details: 25 μM
Method: Hemolytic activity of peptides against fresh erythrocytes from the female ICR mice (Mus musculus) (25 g, 6 weeks of age) was assayed according to the standard method (Zhu et al, [2012]). Peptides were diluted with 0.9% NaCl to the indicated concentration. The percentage of hemolysis is determined as (A pep–A blank)/(A tot–A blank) × 100, in which “A” represents absorbance measured at 570 nm. A blank and A pep were evaluated in the absence or presence of peptides. One hundred percent hemolysis (A tot) was obtained in the presence of 1% Triton X‐100.

[5] = system: Streptococcus sanguinis ATCC 1.2497; test: Inhibition-zone-based synergy assay; assay type: cell-based; details: 0.05 nmol/well, without AMSIN
[6] = system: Streptococcus salivarius ATCC 1.2498; test: Inhibition-zone-based synergy assay; assay type: cell-based; details: 0.05 nmol/well, without AMSIN
[7] = FBS-containing medium, 25 μg/mL, replicate 1
[8] = FBS-containing medium, 25 μg/mL, replicate 2
[9] = FBS-containing medium, 25 μg/mL, replicate 3
[10] = FBS-containing medium, 50 μg/mL, replicate 1
[11] = FBS-containing medium, 50 μg/mL, replicate 2
[12] = FBS-containing medium, 50 μg/mL, replicate 3
[13] = FBS-containing medium, 100 μg/mL, replicate 1
[14] = FBS-containing medium, 100 μg/mL, replicate 2
[15] = FBS-containing medium, 100 μg/mL, replicate 3
[16] = Serum-Free medium, 25 μg/mL, replicate 1
[17] = Serum-Free medium, 25 μg/mL, replicate 2
[18] = Serum-Free medium, 25 μg/mL, replicate 3
[19] = Serum-Free medium, 50 μg/mL, replicate 1
[20] = Serum-Free medium, 50 μg/mL, replicate 2
[21] = Serum-Free medium, 50 μg/mL, replicate 3
[22] = Serum-Free medium, 100 μg/mL, replicate 1
[23] = Serum-Free medium, 100 μg/mL, replicate 2
[24] = Serum-Free medium, 100 μg/mL, replicate 3

LL-37: the human AMP with immunomodulatory properties, chemically synthesized, positive control [reference compound]
Cellular variability of HL-60 (%) (HL‐60; 25 μg/mL, replicate 1): 95% | Cellular variability of HL-60 (%) (HL‐60; 25 μg/mL, replicate 2): 96% | Cellular variability of HL-60 (%) (HL‐60; 25 μg/mL, replicate 3): 103% | Cellular variability of HL-60 (%) (HL‐60; 50 μg/mL, replicate 1): 57% | Cellular variability of HL-60 (%) (HL‐60; 50 μg/mL, replicate 2): 56% | Cellular variability of HL-60 (%) (HL‐60; 50 μg/mL, replicate 3): 64% | Cellular variability of HL-60 (%) (HL‐60; 100 μg/mL, replicate 1): 25% | Cellular variability of HL-60 (%) (HL‐60; 100 μg/mL, replicate 2): 25% | Cellular variability of HL-60 (%) (HL‐60; 100 μg/mL, replicate 3): 26% | IL-8 (A549 cells; [7]): 172 pg/mL | IL-8 (A549 cells; [8]): 166 pg/mL | IL-8 (A549 cells; [9]): 172 pg/mL | IL-8 (A549 cells; [10]): 156 pg/mL | IL-8 (A549 cells; [11]): 129 pg/mL | IL-8 (A549 cells; [12]): 155 pg/mL | IL-8 (A549 cells; [13]): 173 pg/mL | IL-8 (A549 cells; [14]): 195 pg/mL | IL-8 (A549 cells; [15]): 192 pg/mL | IL-8 (A549 cells; [16]): 57 pg/mL | IL-8 (A549 cells; [17]): 41 pg/mL | IL-8 (A549 cells; [18]): 47 pg/mL | IL-8 (A549 cells; [19]): 66 pg/mL | IL-8 (A549 cells; [20]): 57 pg/mL | IL-8 (A549 cells; [21]): 78 pg/mL | IL-8 (A549 cells; [22]): 133 pg/mL | IL-8 (A549 cells; [23]): 122 pg/mL | IL-8 (A549 cells; [24]): 116 pg/mL | MCP-1 (HL‐60 cells; [7]): 486 pg/mL | MCP-1 (HL‐60 cells; [8]): 414 pg/mL | MCP-1 (HL‐60 cells; [9]): 465 pg/mL | MCP-1 (HL‐60 cells; [10]): 538 pg/mL | MCP-1 (HL‐60 cells; [11]): 514 pg/mL | MCP-1 (HL‐60 cells; [12]): 517 pg/mL | MCP-1 (HL‐60 cells; [13]): 545 pg/mL | MCP-1 (HL‐60 cells; [14]): 571 pg/mL | MCP-1 (HL‐60 cells; [15]): 524 pg/mL | MCP-1 (HL‐60 cells; [16]): 431 pg/mL | MCP-1 (HL‐60 cells; [17]): 519 pg/mL | MCP-1 (HL‐60 cells; [18]): 410 pg/mL | MCP-1 (HL‐60 cells; [19]): 583 pg/mL | MCP-1 (HL‐60 cells; [20]): 543 pg/mL | MCP-1 (HL‐60 cells; [21]): 562 pg/mL | MCP-1 (HL‐60 cells; [22]): 459 pg/mL | MCP-1 (HL‐60 cells; [23]): 565 pg/mL | MCP-1 (HL‐60 cells; [24]): 438 pg/mL

CN[C@H](CC(C)C)C(=O)N[C@H]1C(=O)N[C@@H](CC(N)=O)C(=O)N[C@H]2C(=O)N[C@H]3C(=O)N[C@H](C(=O)N[C@H](C(=O)O)c4cc(O)cc(O)c4-c4cc3ccc4O)[C@H](O)c3ccc(c(Cl)c3)Oc3cc2cc(c3O[C@@H]2O[C@H](CO)[C@@H](O)[C@H](O)[C@H]2O[C@H]2C[C@](C)(N)[C@H](O)[C@H](C)O2)Oc2ccc(cc2Cl)[C@H]1O [vancomycin, reference compound]
Cell shape by scanning electron microscopy [1]: deformation of the cell shape | Cytoplasmic accumulation of UMP (MRSA P1374): accumulated | Complex with UMP by CD absorption signatures [2]: a complex was formed | Non-covalent complex with UMP by ESI-MS [3]: complex formation

penicillin [reference compound]
Log10 (CFU per lung) (SP D39; 8.35 mg/kg i.m. 24 h after intranasal SP D39, lungs at 48 h post‐infection, animal 1): 3.6 Log10 (CFU per lung) | Log10 (CFU per lung) (SP D39; 8.35 mg/kg i.m., animal 2): 4.3 Log10 (CFU per lung) | Log10 (CFU per lung) (SP D39; 8.35 mg/kg i.m., animal 3): 3.23 Log10 (CFU per lung) | Log10 (CFU per lung) (SP D39; 8.35 mg/kg i.m., animal 4): 3.28 Log10 (CFU per lung) | Log10 (CFU per lung) (SP D39; 8.35 mg/kg i.m., animal 5): 3.3 Log10 (CFU per lung) | Log10 (CFU per lung) (SP D39; 16.7 mg/kg i.m., animal 1): 1.3 Log10 (CFU per lung) | Log10 (CFU per lung) (SP D39; 16.7 mg/kg i.m., animal 2): 1.48 Log10 (CFU per lung) | Log10 (CFU per lung) (SP D39; 16.7 mg/kg i.m., animal 3): 1.3 Log10 (CFU per lung) | Log10 (CFU per lung) (SP D39; 16.7 mg/kg i.m., animal 4): 4.2 Log10 (CFU per lung) | Log10 (CFU per lung) (SP D39; 16.7 mg/kg i.m., animal 5): 4.68 Log10 (CFU per lung) | Log10 (CFU per lung) (SP D39; 30 mg/kg i.m., animal 1): 3 Log10 (CFU per lung) | Log10 (CFU per lung) (SP D39; 30 mg/kg i.m., animal 2): 1 Log10 (CFU per lung) | Log10 (CFU per lung) (SP D39; 30 mg/kg i.m., animal 3): 2.63 Log10 (CFU per lung) | Log10 (CFU per lung) (SP D39; 30 mg/kg i.m., animal 4): 1 Log10 (CFU per lung) | Log10 (CFU per lung) (SP D39; 30 mg/kg i.m., animal 5): 1 Log10 (CFU per lung)

CC[C@H](C)[C@H](NC(=O)[C@H](CCCCN)NC(=O)[C@@H](NC(=O)[C@H](C)NC(=O)[C@H](CC(C)C)NC(=O)[C@H](CCCCN)NC(=O)[C@H](Cc1ccccc1)NC(=O)[C@H](CC(C)C)NC(=O)[C@H](Cc1cnc[nH]1)NC(=O)CNC(=O)[C@H](Cc1ccccc1)NC(=O)[C@@H](N)Cc1ccccc1)[C@@H](C)O)C(=O)N[C@H](C(=O)N1CCC[C@H]1C(=O)N[C@@H](CO)C(=O)N[C@@H](CC(C)C)C(=O)N[C@@H](Cc1ccccc1)C(=O)N[C@@H](CCC(N)=O)C(=O)O)[C@@H](C)CC [Meucin-18, reference compound] (H-FFGHLFKLATKIIPSLFQ-OH)
Hemolysis (%) ([4]; technical replicate 1): 91.54% | Hemolysis (%) ([4]; technical replicate 2): 95.84% | Hemolysis (%) ([4]; technical replicate 3): 92.43%

drosomycin: a specific antifungal defensin (DCLSGRYKGPCAVWDNETCRRVCKEEGRSSGHCSPSLKCWCEGC; UniProt P41964 27-70, looked up)
Non-covalent complex with UMP by ESI-MS [3]: not

B1: hLZc: lysozyme C isolated from human saliva (protein)
chain: KVFERCELARTLKRLGMDGYRGISLANWMCLAKWESGYNTRATNYNAGDRSTDYGIFQINSRYWCNDGKTPGAVNACHLSCSALLQDNIADAVACAKRVVRDPQGIRAWVAWRNRCQNRDVRQYVQGCGV
Inhibition zone of the factor alone [5]: no visible inhibition zones | Inhibition zone of the factor alone [6]: no visible inhibition zones
